Tested on: Rat (male, female)
Assay: Single dose toxicity study
Assay type: in vivo
Details: rats, administered only once
Protocol: Compound 1 or 2 of the present invention was administered to rats only once, and the lethal dose thereof was determined.

Structure (SMILES)	toxicity (single dose)
C[C@@H]1C[C@H]2[C@@H]3CCC4=CC(=O)C=C[C@]4(C)[C@@]3(F)[C@@H](O)C[C@]2(C)[C@@]1(OC(=O)C1CC1)C(=O)CO [Compound 1, 9-fluoro-11β,17,21-trihydroxy-16α-methyl-1,4-pregnadiene-3,20-dione 17-cyclopropanecarboxylate]	low toxicity
C[C@@H]1C[C@H]2[C@@H]3CCC4=CC(=O)C=C[C@]4(C)[C@@]3(F)[C@@H](O)C[C@]2(C)[C@@]1(OC(=O)C1CC1)C(=O)COC(=O)C1CCCCC1 [Compound 2, 9-fluoro-11β,17,21-trihydroxy-16α-methyl-1,4-pregnadiene-3,20-dione 21-cyclohexanecarboxylate 17-cyclopropanecarboxylate]	low toxicity
